Experimental data: article PMC7306040, “Exploring the abundance of oleate hydratases in the genus Rhodococcus—discovery of novel enzymes with complementary substrate scope” (Applied Microbiology and Biotechnology, 2020)

Legend:
RpOhy (DSM 20415) [1] = target: T1, RpOhy (DSM 20415) (Rhodococcus pyridinivorans, UniProt A0A7T7LF34); assay: yellow colour of purified enzyme; oleic acid conversion with […] added FAD; assay type: binding; conditions: 20 mM acetate pH 5, 25 °C, 500 uM oleic acid, 1% DMSO
T1 construct: gene INP59_15660; N-terminally His6-tagged, codon-optimised, pBAD/His A, E. coli TOP10; Ni-NTA and SEC; monomer, dimer and larger aggregates
T1 sequence (A0A7T7LF34 1-601): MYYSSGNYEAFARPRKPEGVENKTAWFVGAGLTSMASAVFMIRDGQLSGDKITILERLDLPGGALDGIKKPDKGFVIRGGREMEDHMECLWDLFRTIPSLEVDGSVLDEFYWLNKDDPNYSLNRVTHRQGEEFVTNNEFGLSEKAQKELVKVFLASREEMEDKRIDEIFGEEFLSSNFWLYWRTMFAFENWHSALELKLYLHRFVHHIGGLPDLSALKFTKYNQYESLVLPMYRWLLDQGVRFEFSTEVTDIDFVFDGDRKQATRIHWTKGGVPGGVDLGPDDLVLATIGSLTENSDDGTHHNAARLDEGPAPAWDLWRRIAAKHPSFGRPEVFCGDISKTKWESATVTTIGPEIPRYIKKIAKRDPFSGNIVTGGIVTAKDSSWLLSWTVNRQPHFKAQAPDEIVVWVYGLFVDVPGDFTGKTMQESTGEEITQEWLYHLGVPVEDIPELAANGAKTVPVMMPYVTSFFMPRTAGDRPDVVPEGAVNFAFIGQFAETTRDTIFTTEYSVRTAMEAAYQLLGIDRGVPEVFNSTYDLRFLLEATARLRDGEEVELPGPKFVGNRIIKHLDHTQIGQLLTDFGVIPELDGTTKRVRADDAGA

RpOhy (DSM 20415) [2] = target: T1, RpOhy (DSM 20415); assay: coupled assay with alcohol dehydrogenase ADH010, NADH at […] nm; assay type: biochemical; conditions: apparent cooperative, Hill n 2.45 ± 0.47; 2 mM NAD+, 50 mM PIPES pH 6.5, 10% DMSO; read-out: K0.5

Row | SMILES | yellow colour of purified enzyme; oleic acid conversion with 0-100 uM added FAD (RpOhy (DSM 20415) [1]) | Km (RpOhy (DSM 20415) [2]) [µM]
1 | Cc1cc2nc3c(=O)[nH]c(=O)nc-3n(C[C@H](O)[C@H](O)[C@H](O)COP(=O)(O)OP(=O)(O)OC[C@H]3O[C@@H](n4cnc5c(N)ncnc54)[C@H](O)[C@@H]3O)c2cc1C [FAD] | yellow colour indicating that the FAD cofactor was incorporated in the enzyme | –
2 | CCCCCCCC/C=C\CCCCCCCC(=O)O [compound 3, Oleic acid] | – | 720 ± 70
